Values quoted from earlier work, collected in US5973199A, “Hydrosoluble organic salts of creatine” (priority 1994, dated 1999).

Tests used:
[1] = not given; remark: listed apart in the source

SMILES: CN(CC(=O)O)C(=N)N [creatine, N-(aminoiminomethyl)-N-methylglycine]
- tolerability of high doses (high doses of 5-10 g (mean body weights of 70 kg)): well tolerated
- toxicity (in vivo): lack of toxicity
- creatine half-life in plasma [1]: 1 to 1.5 h
